The text below walks through data of ChEMBL document CHEMBL1201862, “PubChem BioAssay data set” (2004).

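In this assay, cells in 96-well plates receive the compound at five concentrations for 48 hours. Endpoints are linearly interpolated between the surrounding concentrations. At the GI50, growth is halved.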 The source made the active and inactive calls. No stated cut-off is given here; in the data, active = GI50 up to about 1.1 µM and inactive = higher.

Common to all, as to test: NCI-60 cell line screen, 48 h
Assay [1] has as its system A498.
In assay [2] the test system is ACHN.
The test system of assay [3] is DU-145.
The subject of assay [4] is HCC 2998.
For assay [5], the system named is HCT-15.
Assay [6] relates to HOP-92.
In assay [7] the test system is Hs-578T.
Assay [8] relates to IGROV-1.
Assay [9] relates to KM12.
The subject of assay [10] is MCF7.
Assay [11] deals with MDA-MB-435.
In assay [12] the test system is Malme-3M.
Assay [13] has as its system OVCAR-3.
Assay [14] concerns OVCAR-4.
Assay [15] concerns SK-MEL-2.
The test system of assay [16] is SK-OV-3.
In assay [17] the test system is SR.
The subject of assay [18] is TK-10.
Assay [19] relates to U-251.
Assay [20] has as its system UACC-62.

Take `O=C(COc1ccc(OCC(=O)N2C(=O)CN(c3ccccc3)C2=S)cc1)N1C(=O)CN(c2ccccc2)C1=S`: the GI50 was > 56.5 µM (inactive) in assay [1]; > 53.3 µM (inactive) in assay [2]; > 61 µM (inactive) in [3]; > 58.5 µM (inactive) in assay [4]; more than 54.1 µM in [5]; > 53.2 µM (inactive) in assay [6]. The GI50 in [7] is > 64.4 µM (inactive); in assay [8] it was > 25 µM (inactive); in assay [9], > 51.5 µM (inactive); in assay [10] it was > 54.3 µM (inactive); in [11], > 55.3 µM (inactive); in assay [12] it was > 25 µM (inactive). Further, the GI50 is 49.3 µM (inactive) in assay [13]; 31.5 µM (inactive) in assay [14]; > 51.4 µM (inactive) in [15]; > 54.3 µM (inactive) in assay [16]; > 25 µM (inactive) in assay [17]; > 54.7 µM (inactive) in assay [18]. Moreover, the GI50 is > 51.6 µM (inactive) in assay [19] and > 56.1 µM (inactive) in assay [20].
